Measured values published in article PMC4700930 (Nature, 2015).
Read-outs that look alike come from different tables or passages of the source. Numbered stars: 1 amine (or outer) side, 2 acyl side, 3 side chain; on linkers, the order of the positions; unused ones are H or OH. Bridge positions count the residues as written; N and C are the ends. Square brackets hold non-standard residues; d marks the D form. Peptide text beside a SMILES is read from it. I, II: the chains in the order shown. Actinocin(9to1) = Cc1c2oc3c(C)ccc(C(=O)[*:1])c3nc-2c(C(=O)[*:2])c(N)c1=O; NMeV = CN[C@H](C(=O)O)C(C)C; Sar = CNCC(=O)O

Legend:
[1] = tested on: GFP-transfected P. berghei ANKA strain; settings: for Activity % / Survival days: oral single dose
P. berghei liver stages = experiment: Plasmodium berghei luciferase liver stage assay
[2] = tested on: P. falciparum Pf3D7^0087/N9; format: in vivo, Plasmodium falciparum
P. falciparum NF54 = experiment: Stage specificity studies in P. falciparum, synchronised cultures; format: cell-based, Plasmodium falciparum; settings: 4nM for 24 h
P. berghei ookinetes = experiment: P. berghei ookinete development assay; settings: Plasmodium berghei, read-out: EC50, P. berghei ookinete
P. berghei (PbGFPCON507) = format: in vivo, Plasmodium berghei
P. falciparum = experiment: Parasite Reduction Ratio
[3] = tested on: MRC5 (human foetal lung fibroblasts); experiment: Cytotoxicity against mammalian cells, resazurin assay, MRC5; format: cell-based
[4] = tested on: DDD107498-resistant P. falciparum lines; experiment: SYBR Green growth assay on DDD107498-selected resistant lines; format: cell-based; settings: Plasmodium falciparum
Rat pharmacokinetics = format: in vivo
[5] = Plasma protein binding, equilibrium dialysis; format: in vitro ADME, mouse, rat, human
Mouse pharmacokinetics = format: in vivo; settings: Intravenous 1 mg/kg
[6] = tested on: P. vivax clinical isolates; experiment: Ex vivo P. vivax field isolates assay; format: cell-based, Plasmodium vivax; settings: read-out: median EC50, P. vivax clinical isolates, isolates from Papua (Indonesia)
[7] = tested on: P. falciparum strains K1, W2, 7G8, TM90C2A, D6, V1/S, NF54; experiment: P. falciparum; format: cell-based, Plasmodium falciparum; settings: compared with 3D7
Dog pharmacokinetics = format: in vivo; settings: Intravenous 1 mg/kg
[8] = tested on: Plasmodium falciparum strain 3D7; experiment: P. falciparum; format: cell-based
[9] = tested on: liver schizont forms of P. yoelii; experiment: P. yoelii liver stage assay; format: cell-based; settings: Plasmodium yoelii, read-out: EC50, P. yoelii liver stage, liver schizont forms
[10] = tested on: DNA/RNA synthesis in P. falciparum 3D7; experiment: Metabolic labelling with [3H]-hypoxanthine; format: cell-based, Plasmodium falciparum; settings: sensitive and drug-resistant parasites
[11] = tested on: luciferase-expressing P. berghei sporozoites; settings: blood sampling from the mice
[12] = tested on: P. falciparum clinical isolates; experiment: Ex vivo P. falciparum field isolates assay; format: cell-based; settings: Plasmodium falciparum
[13] = 30 mg/kg, murine P. berghei model
[14] = male, Sprague Dawley, rat, blood, po, 5 mg/kg

SMILES: CO[C@H]1O[C@@H]2O[C@@]3(C)CC[C@H]4[C@H](C)CC[C@@H]([C@H]1C)[C@@]24OO3 [Artemether]
- Activity % ([1]; 3 mg/kg): 59%
- Survival days ([1]; 3 mg/kg): 6 days
- Activity % ([1]; 10 mg/kg): 89%
- Survival days ([1]; 10 mg/kg): 6 days
- Survival days ([1]; 30 mg/kg): 7 days
- Activity % [1, 13]: 98%

SMILES: C[C@H]1[C@H](OC(=O)CCC(=O)O)O[C@@H]2O[C@@]3(C)CC[C@H]4[C@H](C)CC[C@@H]1[C@@]24OO3 [Artesunate]
- Activity % ([1]; 3 mg/kg): <40%
- Survival days ([1]; 3 mg/kg): 6 days
- Activity % ([1]; 10 mg/kg): 75%
- Survival days ([1]; 10 mg/kg): 6 days
- Survival days ([1]; 30 mg/kg): 9 days

SMILES: O=C1C(O)=C([C@H]2CC[C@H](c3ccc(Cl)cc3)CC2)C(=O)c2ccccc21 [Atovaquone, reference compound]
- EC50 (P. berghei liver stages; read-out: EC50, P. berghei liver stage, continuous treatment): 0.3 nM

SMILES: CCN(CC)CCCC(C)Nc1ccnc2cc(Cl)ccc12 (stereo not drawn) [Chloroquine]
- Survival days ([1]; 3 mg/kg): 7 days
- Survival days ([1]; 10 mg/kg): 7 days
- Survival days ([1]; 30 mg/kg): 10 days

SMILES: O=C(NCCN1CCCC1)c1cc(-c2ccc(CN3CCOCC3)cc2)nc2ccc(F)cc12 [DDD107498]
- minimum parasiticidal concentration (MPC) ([2]; asexual blood stage infections, blood of infected SCID mice): 10 to 13 ng/mL
- ED90 on day 7 after infection ([2]; dosed orally daily for 4 days, SCID mice, P. falciparum): 0.95 mg/kg per day
- effect from the ring stage (P. falciparum NF54): formation of abnormal trophozoites
- reduction in parasites, from the schizont stage (P. falciparum NF54): 98%
- reduction in parasites, from the trophozoite stage (P. falciparum NF54): 50%
- EC50 (P. berghei ookinetes): 5 nM
- TB effect- sporozoite intensity (P. berghei (PbGFPCON507); 3 mg/kg oral): 93.8%
- TB effect- sporozoite prevalence (P. berghei (PbGFPCON507); 3 mg/kg oral): 88.6%
- reduction in infected mosquitoes (TB effect- oocyst prevalence) (P. berghei (PbGFPCON507); 3 mg/kg oral, day 10): 90.7%
- reduction in oocysts per midgut (TB effect- oocyst intensity) (P. berghei (PbGFPCON507); 3 mg/kg oral, day 10): 98.8%
- Inhibition in infection of naïve mice (P. berghei (PbGFPCON507); 3 mg/kg oral, multiple mosquito biting rates): 89.5%
- Effect size (P. berghei (PbGFPCON507); chain binomial model, reduction of R0, 100% coverage): 90.5%
- lag before killing (effects reversible following wash-out) (P. falciparum; 10 × EC50): 24 to 48 h
- concentration sufficient to produce maximal killing effects (P. falciparum; tested at 0.1, 0.3, 1, 3 and 10 × EC50): ≥ 1 × EC50
- selectivity, human cells (MRC5 and Hep-G2) over parasite [3]: > 20,000 fold
- IC50 ([4]; DD2, read-out: DDD107498 IC50, WT Dd2): 0.14 nM
- IC50 ([4]; read-out: DDD107498 IC50, high-level resistant line EF2-L775F): 660 nM
- IC50 ([4]; read-out: DDD107498 IC50, high-level resistant line EF2-Y186N): 3100 nM
- IC50 ([4]; read-out: DDD107498 IC50, low-level resistant line EF2-E134D): 5.8 nM
- CI (Rat pharmacokinetics; Rat, Intravenous 1 mg/kg): 18 mL/min/g
- bioavailability (Rat pharmacokinetics; [14]): 84%
- half-life (Rat pharmacokinetics; [14]): 18 h
- protein binding [5]: low protein binding
- CI (Mouse pharmacokinetics): 12 mL/min/g
- EC50 (P. berghei liver stages; read-out: EC50, P. berghei liver stage, liver schizont forms): ~1 nM
- EC50 [6]: 0.51 nM
- Activity % ([1]; 3 mg/kg): 99%
- Survival days ([1]; 3 mg/kg): 9 days
- Activity % ([1]; 10 mg/kg): 99.0%
- Survival days ([1]; 10 mg/kg): 14 days
- Survival days ([1]; 30 mg/kg): 23 days
- Activity % [1, 13]: 99.1%
- ED90 (90% reduction in parasitaemia) ([1]; single oral dose, mice infected with P. berghei): 0.57 mg/kg
- activity against drug-resistant strains [7]: almost equally active
- mutagenicity (Mutagenicity): non-mutagenic
- CI (Dog pharmacokinetics): 30 mL/min/g
- EC99 against 3D7 parasites ([8]; P. falciparum 3D7, n=39): 5.9 nM
- EC50 ([8]; Plasmodium falciparum, 3D7, read-out: EC50 against 3D7 parasites): 1 nM
- EC90 ([8]; Plasmodium falciparum, 3D7, read-out: EC90 against 3D7 parasites): 2.4 nM
- EC50 [9]: ~1 nM
- effect on DNA/RNA biosynthesis ([3H]-hypoxanthine incorporation) [10]: minimal effects
- MPC, chemoprotection [11]: 15 to 20 ng/mL
- EC50 ([12]; read-out: Range of EC50, P. falciparum clinical isolates): 0.29 to 3.29 nM
- EC50 ([12]; read-out: median EC50, P. falciparum clinical isolates): 0.81 nM

SMILES: C[C@H]1[C@@H](O)O[C@@H]2O[C@@]3(C)CC[C@H]4[C@H](C)CC[C@@H]1[C@@]24OO3 [Dihydroartemsinin]
- Activity % ([1]; 3 mg/kg): 61%
- Survival days ([1]; 3 mg/kg): 7 days
- Activity % ([1]; 10 mg/kg): 97%
- Survival days ([1]; 10 mg/kg): 6 days
- Survival days ([1]; 30 mg/kg): 7 days
- Activity % [1, 13]: 99%

SMILES: OC(c1cc(C(F)(F)F)nc2c(C(F)(F)F)cccc12)C1CCCCN1 (stereo not drawn) [Mefloquine]
- Activity % ([1]; 3 mg/kg): <40%
- Survival days ([1]; 3 mg/kg): 7 days
- Activity % ([1]; 10 mg/kg): 95%
- Survival days ([1]; 10 mg/kg): 16 days
- Survival days ([1]; 30 mg/kg): 22 days

SMILES: Cc1c2oc3c(C)ccc(C(=O)N[C@@H]4C(=O)N[C@H](C(C)C)C(=O)N5CCC[C@H]5C(=O)N(C)CC(=O)N(C)[C@@H](C(C)C)C(=O)O[C@@H]4C)c3nc-2c(C(=O)N[C@@H]2C(=O)N[C@H](C(C)C)C(=O)N3CCC[C@H]3C(=O)N(C)CC(=O)N(C)[C@@H](C(C)C)C(=O)O[C@@H]2C)c(N)c1=O [actinomycin D] (I: T[dV]P[Sar][NMeV] / II: T[dV]P[Sar][NMeV]; ester I:1-I:C, II:1-II:C; linker I:N-II:N via Actinocin(9to1))
- effect on DNA/RNA biosynthesis ([3H]-hypoxanthine incorporation) [10]: significant dose-dependent reduction

SMILES: C[C@@H]1C[C@@H]([C@H](O)CC2CC(=O)NC(=O)C2)C(=O)[C@@H](C)C1 [cycloheximide]
- effect on DNA/RNA biosynthesis ([3H]-hypoxanthine incorporation) [10]: minimal effects
